Experiment: Solubility in second solution of Japanese Pharmacopoeia (0.2 M phosphate buffer, pH approx. 6.8)
Type: physicochemical
Method: The term “solubility” used herein means concentration of drug in a supernatant which is obtained by centrifugal separation of unsolved agent, after shaking a mixture prepared by adding the agent to the second solution defined in Japanese Pharmacopoeia [0.2 M phosphate-buffer (pH approx. 6.8), for more than 30 minutes at room temperature (about 15 to about 25° C.) in a rate of more than 100 times per minutes using, for example, a Recipro shaker (model SR-I, Taiyo Scientific Industrial Co., Ltd.).

CONC(=O)Nc1ccc(-c2sc3c(c2CN(C)Cc2ccccc2)c(=O)n(-c2ccccc2)c(=O)n3Cc2c(F)cccc2F)cc1 [Reference example 7, 5-(N-Benzyl-N-methylaminomethyl)-1-(2,6-difluorobenzyl)-6-[4-(3-methoxyureido)phenyl]-3-phenylthieno[2,3-d]pyrimidine-2,4 (1H,3H)-dione]
water solubility (in words): water-insoluble or slightly water-soluble
